Reference: PubChem BioAssay AID280 (DTP/NCI, 2004)
Values joined by “and” are separate entries in the source; they are usually repeats but may differ in a detail not shown here. Equal values may be shown once. Inconclusive results and toxic doses are left out.

Tested on: nude mice, LOX melanoma ip, survival T/C
Experiment: NCI In Vivo Anticancer Drug Screen. Data for tumor model Human Amelanotic Melanoma (LOX) (intraperitoneal) in NU/NU BALB/C (nude) mice
Settings: endpoint: median survival time, higher = longer survival
Description: The antitumor activity of compounds was measured in mice bearing transplantable tumors. Survival or tumor size were measured and the results are expressed as the measurement made in the treated group (T) divided by the measurement made in the vehicle treated control group (C). The tumor model used in this assay is Human Amelanotic Melanoma (LOX) (intraperitoneal) in NU/NU BALB/C (nude) mice

[1] = dose: 60.0 mg/kg/injection, schedule: Q04DX003 (ip), vehicle: saline
[2] = dose: 75.0 mg/kg/injection, schedule: Q04DX003 (ip), vehicle: Klucel (hydroxypropylcellulose) (HPC)
[3] = dose: 150.0 mg/kg/injection, schedule: Q04DX003 (ip), vehicle: Klucel (hydroxypropylcellulose) (HPC)
[4] = dose: 50.0 mg/kg/injection, schedule: Q04DX003 (ip), vehicle: saline with Tween-80
[5] = dose: 100.0 mg/kg/injection, schedule: Q04DX003 (ip), vehicle: saline with Tween-80
[6] = dose: 12.5 mg/kg/injection, schedule: Q04DX003 (ip), vehicle: saline with Tween-80
[7] = dose: 50.0 mg/kg/injection, schedule: Q04DX003 (ip), vehicle: DMSO

SMILES: CC1(O)C=CC(=O)C=C1
- T/C (dose: 6.25 mg/kg/injection, schedule: Q04DX003 (ip), vehicle: water): 108 % of control
- T/C (dose: 12.5 mg/kg/injection, schedule: Q04DX003 (ip), vehicle: water): 101 % of control
- T/C (dose: 25.0 mg/kg/injection, schedule: Q04DX003 (ip), vehicle: water): 105 % of control
- T/C (dose: 50.0 mg/kg/injection, schedule: Q04DX003 (ip), vehicle: water): 111 % of control

SMILES: O=c1[nH]cc(F)c(=O)[nH]1
- T/C (dose: 5.0 mg/kg/injection, schedule: Q01DX005 (ip), vehicle: saline): 123 % of control
- T/C (dose: 5.0 mg/kg/injection, schedule: Q01DX015 (ip), vehicle: saline): 115 % of control
- T/C (dose: 10.0 mg/kg/injection, schedule: Q01DX015 (ip), vehicle: saline): 224 % of control
- T/C (dose: 10.0 mg/kg/injection, schedule: Q04DX003 (ip), vehicle: saline): 163 % of control
- T/C (dose: 15.0 mg/kg/injection, schedule: Q04DX003 (ip), vehicle: saline): 108 % of control
- T/C (dose: 20.0 mg/kg/injection, schedule: Q01DX005 (ip), vehicle: saline): 166 % of control
- T/C (dose: 20.0 mg/kg/injection, schedule: Q01DX015 (ip), vehicle: saline): 211 % of control
- T/C (dose: 20.0 mg/kg/injection, schedule: Q04DX003 (ip), vehicle: saline): 191 % of control
- T/C (dose: 30.0 mg/kg/injection, schedule: Q04DX003 (ip), vehicle: saline): 179 % of control
- T/C (dose: 40.0 mg/kg/injection, schedule: Q01DX005 (ip), vehicle: saline): 160 % of control
- T/C [1]: 185 % of control

SMILES: Cc1cc(N/N=C/c2ccccn2)nc2ccccc12
- T/C [2]: 107 % of control
- T/C [3]: 107 % of control

SMILES: O=C(C/C(=N\C(=S)Nc1cc(C(F)(F)F)ccc1Cl)NO)N1CCCC1
- T/C [4]: 115 % of control
- T/C [5]: 96 % of control
- T/C (dose: 200.0 mg/kg/injection, schedule: Q04DX003 (ip), vehicle: saline with Tween-80): 108 % of control

SMILES: CC(=O)N(C)c1ccc(Nc2cc(C)[nH]c3ccc4ncnc4c23)cc1
- T/C [6]: 102 % of control
- T/C (dose: 36.0 mg/kg/injection, schedule: Q04DX003 (ip), vehicle: saline): 101 % of control
- T/C [4]: 99 % of control
- T/C [1]: 110 % of control
- T/C [5]: 91 % of control
- T/C (dose: 100.0 mg/kg/injection, schedule: Q04DX003 (ip), vehicle: saline): 100 % of control
- T/C (dose: 167.0 mg/kg/injection, schedule: Q04DX003 (ip), vehicle: saline): 94 % of control

SMILES: Cc1ccc(/C=C/C(=O)/C=C/c2ccc(C)o2)o1
- T/C [7]: 113 % of control
- T/C (dose: 100.0 mg/kg/injection, schedule: Q04DX003 (ip), vehicle: DMSO): 102 % of control
- T/C (dose: 200.0 mg/kg/injection, schedule: Q04DX003 (ip), vehicle: DMSO): 98 % of control
- T/C (dose: 400.0 mg/kg/injection, schedule: Q04DX003 (ip), vehicle: DMSO): 100 % of control
- T/C (dose: 800.0 mg/kg/injection, schedule: Q04DX003 (ip), vehicle: DMSO): 106 % of control

SMILES: Cn1cc(C2NC(=O)c3ccccc3N2)c2ccccc21 (stereo not given)
- T/C [2]: 110 % of control and 100 % of control
- T/C [3]: 106 % of control and 122 % of control
- T/C (dose: 300.0 mg/kg/injection, schedule: Q04DX003 (ip), vehicle: Klucel (hydroxypropylcellulose) (HPC)): 110 % of control and 94 % of control

SMILES: COc1ccc2oc(-c3ccc(Cl)cc3)c(N3CCN(C)CC3)c2c1
- T/C (dose: 75.0 mg/kg/injection, schedule: Q04DX003 (ip), vehicle: saline): 91 % of control
- T/C (dose: 150.0 mg/kg/injection, schedule: Q04DX003 (ip), vehicle: saline): 118 % of control
- T/C (dose: 300.0 mg/kg/injection, schedule: Q04DX003 (ip), vehicle: saline): 90 % of control

SMILES: N=C(N)SCc1cccc2c(=O)cc(-c3ccccc3)oc12
- T/C (dose: 25.0 mg/kg/injection, schedule: Q04DX003 (ip), vehicle: suspension in saline): 101 % of control
- T/C (dose: 50.0 mg/kg/injection, schedule: Q04DX003 (ip), vehicle: suspension in saline): 111 % of control
- T/C (dose: 100.0 mg/kg/injection, schedule: Q04DX003 (ip), vehicle: suspension in saline): 118 % of control
- T/C (dose: 400.0 mg/kg/injection, schedule: Q04DX003 (ip), vehicle: suspension in saline): 124 % of control

SMILES: CCCCNP1(NCCCC)=NP(NCCCC)(NCCCC)=NP(NCCCC)(NCCCC)=NP(NCCCC)(NCCCC)=N1
- T/C (dose: 32.4 mg/kg/injection, schedule: Q04DX003 (ip), vehicle: saline with Tween-80): 116 % of control
- T/C (dose: 54.0 mg/kg/injection, schedule: Q04DX003 (ip), vehicle: saline with Tween-80): 105 % of control and 98 % of control
- T/C (dose: 75.0 mg/kg/injection, schedule: Q04DX003 (ip), vehicle: saline with Tween-80): 113 % of control
- T/C (dose: 90.0 mg/kg/injection, schedule: Q04DX003 (ip), vehicle: saline with Tween-80): 105 % of control and 120 % of control

SMILES: CC(O)CCC(=O)c1ccoc1 (stereo not given)
- T/C (dose: 10.8 mg/kg/injection, schedule: Q01DX001 (ip), vehicle: propolene glycol): 103 % of control and 118 % of control and 119 % of control
- T/C (dose: 30.0 mg/kg/injection, schedule: Q01DX001 (ip), vehicle: propolene glycol): 117 % of control

SMILES: COc1cc(NCc2ccc3nc(N)nc(N)c3c2C)cc(OC)c1OC
- T/C (dose: 7.5 mg/kg/injection, schedule: Q04DX003 (ip), vehicle: Klucel (hydroxypropylcellulose) (HPC)): 151 % of control
- T/C (dose: 15.0 mg/kg/injection, schedule: Q04DX003 (ip), vehicle: Klucel (hydroxypropylcellulose) (HPC)): 118 % of control
- T/C (dose: 30.0 mg/kg/injection, schedule: Q04DX003 (ip), vehicle: Klucel (hydroxypropylcellulose) (HPC)): 118 % of control
- T/C (dose: 60.0 mg/kg/injection, schedule: Q04DX003 (ip), vehicle: Klucel (hydroxypropylcellulose) (HPC)): 123 % of control

SMILES: CN1C2C=CC(=O)C1C1C(=O)N(c3ccccc3)C(=O)C12 (stereo not given)
- T/C (dose: 50.0 mg/kg/injection, schedule: Q04DX003 (ip), vehicle: Klucel (hydroxypropylcellulose) (HPC)): 100 % of control
- T/C (dose: 100.0 mg/kg/injection, schedule: Q04DX003 (ip), vehicle: Klucel (hydroxypropylcellulose) (HPC)): 96 % of control
- T/C (dose: 200.0 mg/kg/injection, schedule: Q04DX003 (ip), vehicle: Klucel (hydroxypropylcellulose) (HPC)): 99 % of control
- T/C (dose: 400.0 mg/kg/injection, schedule: Q04DX003 (ip), vehicle: Klucel (hydroxypropylcellulose) (HPC)): 100 % of control

SMILES: CO[C@@]12[C@@H]3N[C@@H]3CN1C1=C(C(=O)C(NCCc3ccccn3)=C(C)C1=O)[C@@H]2COC(N)=O
- T/C (dose: 1.5 mg/kg/injection, schedule: Q04DX003 (ip), vehicle: saline with Tween-80): 187 % of control
- T/C (dose: 3.12 mg/kg/injection, schedule: Q04DX003 (ip), vehicle: saline with Tween-80): 192 % of control
- T/C (dose: 3.13 mg/kg/injection, schedule: Q04DX003 (ip), vehicle: saline with Tween-80): 159 % of control
- T/C (dose: 6.25 mg/kg/injection, schedule: Q04DX003 (ip), vehicle: saline with Tween-80): 179 % of control and 198 % of control
- T/C [6]: 317 % of control and 340 % of control
- T/C (dose: 25.0 mg/kg/injection, schedule: Q04DX003 (ip), vehicle: saline with Tween-80): 317 % of control and 340 % of control

SMILES: CC[C@@H](C)[C@H]([C@H](CC(=O)N1CCC[C@@H]1[C@@H](OC)[C@H](C)C(=O)N[C@H](Cc1ccccc1)c1nccs1)OC)N(C)C(=O)[C@H](NC(=O)[C@@H](C(C)C)N(C)C)C(C)C
- T/C (dose: 3.0 micrograms/kg/injection, schedule: Q04DX003 (ip), vehicle: saline + alcohol): 109 % of control
- T/C (dose: 3.25 micrograms/kg/injection, schedule: Q04DX003 (ip), vehicle: saline + alcohol): 170 % of control
- T/C (dose: 6.0 micrograms/kg/injection, schedule: Q04DX003 (ip), vehicle: saline + alcohol): 113 % of control
- T/C (dose: 6.5 micrograms/kg/injection, schedule: Q04DX003 (ip), vehicle: saline + alcohol): 206 % of control
- T/C (dose: 9.0 micrograms/kg/injection, schedule: Q04DX003 (ip), vehicle: saline + alcohol): 115 % of control
- T/C (dose: 13.0 micrograms/kg/injection, schedule: Q04DX003 (ip), vehicle: saline + alcohol): 301 % of control
- T/C (dose: 15.0 micrograms/kg/injection, schedule: Q04DX003 (ip), vehicle: saline + alcohol): 192 % of control
- T/C (dose: 26.0 micrograms/kg/injection, schedule: Q04DX003 (ip), vehicle: saline + alcohol): 181 % of control and 301 % of control
- T/C (dose: 43.0 micrograms/kg/injection, schedule: Q04DX003 (ip), vehicle: saline + alcohol): 340 % of control

SMILES: c1ccc2[nH]c(CN(CCN(Cc3nc4ccccc4[nH]3)Cc3nc4ccccc4[nH]3)Cc3nc4ccccc4[nH]3)nc2c1
- T/C (dose: 6.25 mg/kg/injection, schedule: Q04DX003 (ip), vehicle: DMSO): 102 % of control
- T/C (dose: 12.5 mg/kg/injection, schedule: Q04DX003 (ip), vehicle: DMSO): 110 % of control
- T/C (dose: 25.0 mg/kg/injection, schedule: Q04DX003 (ip), vehicle: DMSO): 113 % of control
- T/C [7]: 111 % of control
